± gives the expanded uncertainty stated by the source.

A short description of this data set: an = ratio of the nth substance listed. The settings on record: 101 kPa, Liquid, Vibrating tube method.

By mass density is commonly meant mass per unit of volume. As for `Cn1cc[n+](C)c1.F[B-](F)(F)F` [1,3-dimethyl-1H-imidazolium tetrafluoroborate] + O, for the setting “313.15 K, a1 = 0.75”, the mass density came out at 1098.4 ± 0.3 kg/m3.
Same read-out and setting: next, `Cn1cc[n+](C)c1.[Cl-]` [1,3-dimethylimidazolium chloride] + O: 1096.1 ± 0.3 kg/m3.
For the compound `COP(=O)([O-])OC.Cn1cc[n+](C)c1` [1,3-dimethylimidazolium dimethylphosphate] + O, the mass density reads like this: (293.15 K, a1 = 0.5) 1086.4 ± 0.2 kg/m3; (293.15 K, a1 = 0.75) 1112.3 ± 0.3 kg/m3; (313.15 K, a1 = 0.5) 1076.8 ± 0.2 kg/m3; (313.15 K, a1 = 0.75) 1104.1 ± 0.2 kg/m3; (333.15 K, a1 = 0.5) 1076.6 ± 0.2 kg/m3; (333.15 K, a1 = 0.75) 1103.3 ± 0.2 kg/m3.
